As usually defined, the fraction remaining is the share of the starting amount still present when the sample was taken.

Series [1] concerns HMEC-1 cells. Nature of the series: Cytotoxicity, CellTiter-Blue cell viability assay. It is filed as cell-based, human. The settings on record: 24 h incubation. The method, then:
Human dermal microvascular endothelium cells (HMEC-1, ATCC CRL-3243) (ATCC, Manassas, VA, USA) were cultured as a monolayer using MCDB-131 medium (without L-glutamine) with phenol red (Gibco, Thermo-Fisher, Waltham, MA, USA). The medium was supplemented with 10% (v/v) fetal bovine serum (FBS), 1% (v/v) penicillin/streptomycin (Gibco, Thermo-Fisher), 10 ng/mL epidermal growth factor (EGF), 1 μg/mL hydrocortisone (Sigma-Aldrich, St. Louis, MO, USA), and 10 mM glutamine (ATCC), according to the manufacturer’s instructions. Cells were grown in a humidified atmosphere of 5% CO2 at 37 °C. The cytotoxicity of vCPP2319 toward HMEC-1 cells was determined using CellTiter-Blue Cell Viability Assay (Promega, USA), according to the manufacturer’s instructions. HMEC-1 cells were seeded into a sterile 96-well clear flat-bottomed polystyrene plate (Corning) at 2.5 × 10^4 cells/well and incubated for 24 h at 37 °C. After medium removal, cells were washed twice with PBS. […] The fluorescence intensity was measured with excitation and emission at 560 and 590 nm, respectively, using the infinite M200 microplate reader (Tecan). […] HMEC-1 cells metabolic activity (%) was determined using the following equation: [drawing 2] 2 where FP is the fluorescence intensity of peptide-treated cells, FNC is the fluorescence intensity of negative controls, and FPC is the fluorescence intensity of positive controls. […]
(Resazurin is reduced to fluorescent resorufin, in cell work by metabolically active cells.)

Series [2] can be described thus: in vitro. In kind it is in vitro ADME, human. The note with it: 37 °C. The protocol:
vCPP2319 at final concentrations of 50, 100, 200, and 500 μM was incubated with 25% (v/v in H2O) human serum (Sigma-Aldrich) at 37 °C, with gentle swirling. At different time points (0, 1, 5, 10, 30, 60 120, 360, and 1440 min), 120 μL aliquots were taken and treated with 20 μL of 5% perchloric acid (v/v in H2O) for 30 min at 4 °C, to stop the proteolytic reaction. To determine the maximum peptide intensity (100% intact peptide; t0), serum proteins were first precipitated, followed by the addition of the peptide. Controls of serum without peptide and peptide not incubated in serum were also included in the assay. Samples were next centrifuged at 13 000g for 10 min to remove serum proteins. The supernatants were analyzed by reversed-phase HPLC (RP-HPLC) and LC–mass spectrometry (LC-MS). The percentage of intact peptide was calculated by RP-HPLC peak integration, expressed as percent of the amount at t0, and data were fitted to a monoexponential decay model using GraphPad Prism 7.0 to estimate the peptide half-life (t1/2). Analytical RP-HPLC was performed on a LC-20AD instrument (Shimadzu, Kyoto, Japan) equipped with a Luna C18 column (4.6 × 50 mm, 3 μm; Phenomenex, Torrance, CA, USA) using linear gradients of solvent B (0.036% (v/v) trifluoroacetic acid (TFA) in acetonitrile (ACN)) into A (0.045% (v/v) TFA in H2O) over 15 min, at a flow rate of 1 mL/min and UV detection at 220 nm. MS analysis was performed on an LC-MS 2010EV instrument (Shimadzu) fitted with an XBridge C18 column (4.6 mm × 150 mm, 3.5 μm, Waters, Cerdanyola del Valles, Spain), eluting with linear gradients of F (0.08% (v/v) formic acid [FA] in ACN) into E (0.1% (v/v) FA in H2O) over 15 min at 1 mL/min flow rate.[45]
1 - vCPP2319 stability in human serum
Figure S1 – vCPP2319 stability in human serum. Variable concentrations of the peptide were incubated with 25% (v/v in H2O) human serum for 0, 30, 60 and 120 min.
The intact peptide was separated from degradation products by HPLC using a 0 – 95% ACN gradient over 15 min. Afterwards, the percentage of intact peptide (Figure 1C) was calculated by chromatograms peak integration.
(1 picture or pasted object on this page, not shown here)

A short description of series [3]: Dynamic light scattering, self-assembly. The note with it: DLS, in PBS, preincubated 4 h at 25 °C, 50, 100, 200 and 500 μM, two independent experiments (Figure S2). In kind it is physicochemical. The protocol:
DLS experiments were carried out on a Zetasizer Nano ZS instrument from Malvern (Worcestershire, UK). vCPP2319, in PBS, was preincubated for 4 h, at 25 °C, at different concentrations (50, 100, 200, and 500 μM). The Z-average hydrodynamic diameter was measured using DLS in particle size analysis mode. For each experiment, a single measurement, corresponding to an autocorrelation curve averaged from a minimum of 20 runs, was performed. All measurements were performed at 25 °C. Data were obtained from two independent experiments.

In series [4] the test system is S. aureus ATCC 6538 biofilms. Nature of the series: Crystal violet binding assay, biofilm biomass. The note with it: 24 h-preformed biofilms, treatment for 4 or 24 h. In kind it is cell-based, Staphylococcus aureus. The protocol: The effect of vCPP2319 on 24 h-preformed S. aureus biofilms was evaluated using three distinct methods, as previously described:[24] the metabolic activity and viability of biofilm-embedded cells was determined using a resazurin reduction fluorometric assay and a colony count assay, respectively. The total biofilm biomass was quantified by using a crystal violet assay.
Crystal violet is a basic dye that binds to negatively charged molecules, such as those in biofilms EPS matrix and on bacterial membrane surface.[51]S. aureus suspensions at 1 × 10^6 CFU/mL were incubated in a 96-well microtiter clear flat-bottomed polystyrene plate (Corning) for 24 h at 37 °C. […] (EC 3.2.1.1), ranging from 0.0078 to 0.5 mg/mL, for 4 h at 37 °C. Untreated biofilms were used as a control. Biofilms were washed twice with MHB and incubated with 0.25% (v/v in sterile Milli-Q water) crystal violet (Sigma-Aldrich) for 30 min at room temperature. After each sample was washed three times with MHB, crystal violet was solubilized with 95% (v/v) ethanol (Carlo Erba Reagents S.A.S., France) by repeated pipetting. Biofilm biomass was quantified by measuring the absorbance at 590 nm of each sample in an infinite M200 microplate reader (Tecan). The percentage of crystal violet staining was determined relative to the control after blank (0.25% (v/v) crystal violet in sterile Milli-Q water) correction.

Where no end group is shown, it is not given here. Some results are limits rather than exact numbers.

On to WRRRYRRWRRRRRWRRRPRR-NH2 [vCPP2319], for which the “effect on metabolic activity of HMEC-1 cells” value in series [1] (50 μM, highest concentration tested) is listed as “slight effect”; in series [1] (concentrations of up to 25 μM) it was “no effect”. In addition, the half-life at 50 μM in series [2] (50 μM peptide, 25% (v/v in H2O) human serum, RP-HPLC peak integration, monoexponential decay fit, 95% CI 139–401, read-out: half-life (t1/2) in human serum) was determined as 3.45 h. In series [2] (100 μM peptide, 25% (v/v in H2O) human serum, RP-HPLC peak integration, monoexponential decay fit, 95% CI 234–542, read-out: half-life (t1/2) in human serum), the half-life at 100 μM was 5.43 h. In series [2] (200 μM peptide, 25% (v/v in H2O) human serum, RP-HPLC peak integration, monoexponential decay fit, 95% CI 327–490, read-out: half-life (t1/2) in human serum), the half-life at 200 μM came out at 6.53 h. Also, the half-life at 500 μM in series [2] (500 μM peptide, 25% (v/v in H2O) human serum, RP-HPLC peak integration, monoexponential decay fit, 95% CI 368–2107, read-out: half-life (t1/2) in human serum) turned out to be 10.4 h. Moreover, the share remaining at 1 h in series [2] (after 1 h incubation, all concentrations studied (50, 100, 200, 500 μM), 25% (v/v) human serum, RP-HPLC, read-out: intact peptide remaining) was > 60%. Moreover, in series [3], the self-assembly result is “self-assemble into nanoparticles”. Besides, in series [4], the “effect on biofilm biomass” value is on record as “no significant changes”.

The values are drawn from PMC10580319, “Quantitative Imaging of the Action of vCPP2319, an Antimicrobial Peptide from a Viral Scaffold, against Staphylococcus aureus Biofilms of a Clinical Isolate” (ACS Infectious Diseases, 2023).
